Tests used:
[1] = test system: MC38 mouse CRC in vivo model; assay: Tumor growth inhibition in subcutaneous syngeneic MC38 colon carcinoma model; conditions: antibody 30 mg/kg i.p. weekly, CpG ODN 1826 100 μg peritumoral 1×; for TGI (day 24): versus control antibody
Description: Additionally to the assessment of median tumor volume after 2 weeks of treatment the progression of individual tumors in the study was followed until progression ≧700 mm3 (FIG. 1 (CpG is TLR9 agonist CpG ODN 1826) and Table 11)

[2] = SCID mouse; cited from earlier work
[3] = phase 1/1 I clinical study; cited from earlier work
lymphoma = conditions: phase 1/1 I clinical study; cited from earlier work

CpG ODN 1826
Median time to progression TV > 700 mm3 [1]: 24 days | TCR (day 24) [1]: 0.28 | TGI (day 24) [1]: 74% | TGI (day 24) ([1]; listed as TLR9 agonist (CpG)): 73%

CpG-685: synthetic, 21-mer fully phosphorothioated CpG ODN 5′-tcgtcgacgtcgttcgttctc-3′ (SEQ ID NO: 93), SBI Biotech (DNA TCGTCGACGTCGTTCGTTCTC; DNA, all phosphorothioate, methylation of C not given here)
antitumor effects [2]: showed antitumor effects

d(P-Thio)(TCGTCGTTTTGTCGTTTTGTCGTT)DNA [CpG-7909]
tolerability [3]: well tolerated | antilymphoma activity (lymphoma): antilymphoma activity

— patent US9192667B2, “Method of treating cancer by administering CSF-1R antibodies and a TLR9 agonist” (Hoffmann-La Roche Inc., priority 2013, dated 2015)
